Test results as given in BindingDB's records for doi:10.1016/j.bioorg.2016.12.008 (Fayoum University, 2017).
pIC50: −log10 of the molar value.

Columns and labels:
[1] = target: T1, Prostaglandin G/H synthase 2 (Ovis aries, UniProt P79208); experiment: In Vitro Cyclooxygenase (COX) Inhibition Assay
T1 sequence (P79208 whole entry): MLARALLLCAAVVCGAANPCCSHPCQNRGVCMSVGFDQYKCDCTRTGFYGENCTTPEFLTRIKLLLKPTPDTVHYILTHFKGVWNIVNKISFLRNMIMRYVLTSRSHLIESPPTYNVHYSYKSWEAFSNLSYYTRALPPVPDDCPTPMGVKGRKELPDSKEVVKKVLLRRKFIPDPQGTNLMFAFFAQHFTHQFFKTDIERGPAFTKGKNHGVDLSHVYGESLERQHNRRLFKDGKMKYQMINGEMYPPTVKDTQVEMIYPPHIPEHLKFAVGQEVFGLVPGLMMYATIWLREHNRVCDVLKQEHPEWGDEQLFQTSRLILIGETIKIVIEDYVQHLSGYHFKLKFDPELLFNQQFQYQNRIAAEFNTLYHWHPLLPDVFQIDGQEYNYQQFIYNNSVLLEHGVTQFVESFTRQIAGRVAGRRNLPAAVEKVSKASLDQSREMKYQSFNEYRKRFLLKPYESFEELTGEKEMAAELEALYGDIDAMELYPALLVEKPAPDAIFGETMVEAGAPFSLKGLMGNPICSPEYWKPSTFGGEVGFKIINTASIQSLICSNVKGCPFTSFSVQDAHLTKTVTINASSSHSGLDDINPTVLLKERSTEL
Procedure: (§1) Different concentrations of either celecoxib or tested compounds were incubated with the enzymes for a period of 5 min at 25 °C. After the incubation period the colorimetric substrate and arachidonic acid were added after that the absorbance was measured at 590 nm using plate reader.

[2] = target: T2, Prostaglandin G/H synthase 1 (Ovis aries, UniProt P05979); experiment: In Vitro Cyclooxygenase (COX) Inhibition Assay
T2 sequence (P05979 whole entry): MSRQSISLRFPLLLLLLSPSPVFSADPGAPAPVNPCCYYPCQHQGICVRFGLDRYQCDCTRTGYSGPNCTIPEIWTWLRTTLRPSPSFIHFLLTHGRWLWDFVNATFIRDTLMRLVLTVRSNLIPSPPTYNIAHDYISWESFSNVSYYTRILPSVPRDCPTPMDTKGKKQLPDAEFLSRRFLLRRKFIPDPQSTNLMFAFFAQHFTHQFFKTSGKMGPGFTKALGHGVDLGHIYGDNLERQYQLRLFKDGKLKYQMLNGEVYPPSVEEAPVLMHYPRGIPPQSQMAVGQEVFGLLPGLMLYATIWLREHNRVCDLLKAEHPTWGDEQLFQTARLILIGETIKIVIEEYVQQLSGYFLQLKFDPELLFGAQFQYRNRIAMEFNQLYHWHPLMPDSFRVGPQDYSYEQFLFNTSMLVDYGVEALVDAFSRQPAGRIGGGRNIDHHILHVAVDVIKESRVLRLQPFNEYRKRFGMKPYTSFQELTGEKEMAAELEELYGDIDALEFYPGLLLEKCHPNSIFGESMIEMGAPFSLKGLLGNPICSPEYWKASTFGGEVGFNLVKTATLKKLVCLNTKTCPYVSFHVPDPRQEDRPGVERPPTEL
Procedure: as §1

Row | Structure (SMILES) | pIC50 [1] | pIC50 [2]
1 | CS(=O)(=O)Nc1ccc(C2=NN(c3ccc(S(N)(=O)=O)cc3)C(c3cccs3)C2)cc1 (stereo not drawn) [1-(4-Aminosulfonylphenyl)-5-(2-thienyl)-3-(4-methanesulfonylaminophenyl)-4,5-dihydro-1H-pyrazole (6f)] | 5.11 | 4.60
2 | Cc1ccc(C2CC(c3ccc(NS(C)(=O)=O)cc3)=NN2c2ccc(S(N)(=O)=O)cc2)cc1 (stereo not drawn) [1-(4-Aminosulfonylphenyl)-3-(4-methanesulfonylaminophenyl)-5-(4-tolyl)-4,5-dihydro-1H-pyrazole (6b)] | 5.12 | 4.63
3 | CS(=O)(=O)Nc1ccc(C2=NN(c3ccc(S(N)(=O)=O)cc3)C(c3ccc(F)cc3)C2)cc1 (stereo not drawn) [1-(4-Aminosulfonylphenyl)-5-(4-fluorophenyl)-3-(4-methanesulfonylaminophenyl)-4,5-dihydro-1H-pyrazole (6d)] | 5.41 | 4.73
4 | CS(=O)(=O)Nc1ccc(-c2cc(-c3ccco3)c(C#N)c(=O)[nH]2)cc1 [4-(2-Furyl)-6-(4-methanesulfonylaminophenyl)-2-oxo-1,2-dihydropyridine-3-carbonitrile (4q)] | 5.54 | 5.01
5 | CS(=O)(=O)Nc1ccc(C2=NN(c3ccc(S(N)(=O)=O)cc3)C(c3ccc(Cl)cc3)C2)cc1 (stereo not drawn) [1-(4-Aminosulfonylphenyl)-5-(4-chlorophenyl)-3-(4-methanesulfonylaminophenyl)-4,5-dihydro-1H-pyrazole (6c)] | 5.62 | 5.01
6 | CS(=O)(=O)Nc1ccc(-c2cc(-c3ccc(Cl)cc3)c(C#N)c(=O)[nH]2)cc1 [4-(4-Chlorophenyl)-6-(4-methanesulfonylaminophenyl)-2-oxo-1,2-dihydropyridine-3-carbonitrile (4o)] | 5.47 | 4.82
7 | N#Cc1c(-c2ccco2)cc(-c2ccc([N+](=O)[O-])cc2)[nH]c1=O [4-(2-Furyl)-6-(4-nitrophenyl)-2-oxo-1,2-dihydropyridine-3-carbonitrile (4e)] | 5.92 | 5.05
8 | CC(C)Cc1ccc(-c2cc(-c3ccco3)c(C#N)c(=O)[nH]2)cc1 [4-(2-Furyl)-6-(4-isobutylphenyl)-2-oxo-1,2-dihydropyridine-3-carbonitrile (4k)] | 5.95 | 5.14
9 | CC(C)Cc1ccc(-c2cc(-c3ccc(Cl)cc3)c(C#N)c(=O)[nH]2)cc1 [4-(4-Chlorophenyl)-6-(4-isobutylphenyl)-2-oxo-1,2-dihydropyridine-3-carbonitrile (4i)] | 5.29 | 4.85
10 | CS(=O)(=O)Nc1ccc(C2=NN(c3ccc(S(N)(=O)=O)cc3)C(c3ccccc3)C2)cc1 (stereo not drawn) [1-(4-Aminosulfonylphenyl)-3-(4-methanesulfonylaminophenyl)-5-phenyl-4,5-dihydro-1H-pyrazole (6a)] | 5.89 | 5.12
11 | CS(=O)(=O)Nc1ccc(C2=NN(c3ccc(S(N)(=O)=O)cc3)C(c3ccco3)C2)cc1 (stereo not drawn) [1-(4-Aminosulfonylphenyl)-5-(2-furyl)-3-(4-methanesulfonylaminophenyl)-4,5-dihydro-1H-pyrazole (6e)] | 5.46 | 4.78

The remaining lines, values ahead:

Row | pIC50 [1] | pIC50 [2] | Structure (SMILES)
12 | 6.03 | 5.19 | CC(C)Cc1ccc(-c2cc(-c3ccc(F)cc3)c(C#N)c(=O)[nH]2)cc1 [4-(4-Fluorophenyl)-6-(4-isobutylphenyl)-2-oxo-1,2-dihydropyridine-3-carbonitrile (4j)]
13 | 5.57 | 4.95 | Cc1ccc(-c2cc(-c3ccc(CC(C)C)cc3)[nH]c(=O)c2C#N)cc1 [6-(4-Isobutylphenyl)-2-oxo-4-(p-tolyl)-1,2-dihydropyridine-3-carbonitrile (4h)]
14 | 5.43 | 4.90 | CC(C)Cc1ccc(-c2cc(-c3cccs3)c(C#N)c(=O)[nH]2)cc1 [6-(4-Isobutylphenyl)-2-oxo-4-(2-thienyl)-1,2-dihydropyridine-3-carbonitrile (4l)]
15 | 6.06 | 5.17 | N#Cc1c(-c2cccs2)cc(-c2ccc([N+](=O)[O-])cc2)[nH]c1=O [6-(4-nitrophenyl)-2-oxo-4-(thiophen-2-yl)-1,2-dihydropyridine-3-carbonitrile (4f)]
16 | 5.60 | 4.97 | CS(=O)(=O)Nc1ccc(-c2cc(-c3ccc(F)cc3)c(C#N)c(=O)[nH]2)cc1 [4-(4-Fluorophenyl)-6-(4-methanesulfonylaminophenyl)-2-oxo-1,2-dihydropyridine-3-carbonitrile (4p)]
17 | 5.47 | 4.88 | CC(C)Cc1ccc(-c2cc(-c3ccccc3)c(C#N)c(=O)[nH]2)cc1 [6-(4-Isobutylphenyl)-2-oxo-4-phenyl-1,2-dihydropyridine-3-carbonitrile (4g)]
18 | 5.14 | 4.63 | N#Cc1c(-c2ccc(Cl)cc2)cc(-c2ccc([N+](=O)[O-])cc2)[nH]c1=O [4-(4-chlorophenyl)-6-(4-nitrophenyl)-2-oxo-1,2-dihydropyridine-3-carbonitrile (4c)]
19 | 5.80 | 5.03 | CS(=O)(=O)Nc1ccc(-c2cc(-c3ccccc3)c(C#N)c(=O)[nH]2)cc1 [6-(4-Methanesulfonylaminophenyl)-2-oxo-4-phenyl-1,2-dihydropyridine-3-carbonitrile (4m)]
20 | 5.89 | 5.07 | Cc1ccc(-c2cc(-c3ccc(NS(C)(=O)=O)cc3)[nH]c(=O)c2C#N)cc1 [6-(4-Methanesulfonylaminophenyl)-2-oxo-4-(4-tolyl)-1,2-dihydropyridine-3-carbonitrile (4n)]
21 | 5.34 | 4.87 | N#Cc1c(-c2ccc(F)cc2)cc(-c2ccc([N+](=O)[O-])cc2)[nH]c1=O [4-(4-Fluorophenyl)-6-(4-nitrophenyl)-2-oxo-1,2-dihydropyridine-3-carbonitrile (4d)]
22 | 4.99 | 4.49 | CS(=O)(=O)Nc1ccc(-c2cc(-c3cccs3)c(C#N)c(=O)[nH]2)cc1 [6-(4-Methanesulfonylaminophenyl)-2-oxo-4-(2-thienyl)-1,2-dihydropyridine-3-carbonitrile (4r)]
23 | 5.42 | 4.91 | N#Cc1c(-c2ccccc2)cc(-c2ccc([N+](=O)[O-])cc2)[nH]c1=O [6-(4-nitrophenyl)-2-oxo-4-phenyl-1,2-dihydropyridine-3-carbonitrile (4a)]
24 | 5.54 | 4.89 | Cc1ccc(-c2cc(-c3ccc([N+](=O)[O-])cc3)[nH]c(=O)c2C#N)cc1 [6-(4-Nitrophenyl)-2-oxo-4-(p-tolyl)-1,2-dihydropyridine-3-carbonitrile (4b)]
